Measurements taken from ChEMBL document CHEMBL1141174, “Quantitative structure-activity relationship analysis of inhibitors of the nicotine metabolizing CYP2A6 enzyme” (J Med Chem, 2005).

Key:
[1] = test system: CYP2A6 / CYP2A5; test: Ratio of IC50 for human CYP2A6 to that of mouse CYP2A5 was determined
[2] = biological target: T1, Cytochrome P450 2A6 (Homo sapiens, UniProt P11509); test: Inhibitory concentration against human cytochrome P450 2A6
T1 sequence (P11509 whole entry): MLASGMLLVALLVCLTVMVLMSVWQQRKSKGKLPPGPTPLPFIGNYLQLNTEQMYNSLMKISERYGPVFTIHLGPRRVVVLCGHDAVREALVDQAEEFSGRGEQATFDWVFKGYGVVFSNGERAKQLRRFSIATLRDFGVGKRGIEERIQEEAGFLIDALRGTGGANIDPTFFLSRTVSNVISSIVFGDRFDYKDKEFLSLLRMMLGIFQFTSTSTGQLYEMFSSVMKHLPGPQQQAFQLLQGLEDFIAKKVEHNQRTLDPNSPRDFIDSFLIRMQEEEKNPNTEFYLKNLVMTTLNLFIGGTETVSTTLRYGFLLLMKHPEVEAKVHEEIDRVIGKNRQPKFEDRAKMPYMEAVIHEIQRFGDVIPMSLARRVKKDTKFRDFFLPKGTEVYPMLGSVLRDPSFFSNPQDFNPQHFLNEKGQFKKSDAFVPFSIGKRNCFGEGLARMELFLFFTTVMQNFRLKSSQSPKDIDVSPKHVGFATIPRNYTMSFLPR

[3] = biological target: T2, Cytochrome P450 2A5 (Mus musculus, UniProt P20852); test: Inhibitory concentration against mouse cytochrome P450 2A5
T2 sequence (P20852 whole entry): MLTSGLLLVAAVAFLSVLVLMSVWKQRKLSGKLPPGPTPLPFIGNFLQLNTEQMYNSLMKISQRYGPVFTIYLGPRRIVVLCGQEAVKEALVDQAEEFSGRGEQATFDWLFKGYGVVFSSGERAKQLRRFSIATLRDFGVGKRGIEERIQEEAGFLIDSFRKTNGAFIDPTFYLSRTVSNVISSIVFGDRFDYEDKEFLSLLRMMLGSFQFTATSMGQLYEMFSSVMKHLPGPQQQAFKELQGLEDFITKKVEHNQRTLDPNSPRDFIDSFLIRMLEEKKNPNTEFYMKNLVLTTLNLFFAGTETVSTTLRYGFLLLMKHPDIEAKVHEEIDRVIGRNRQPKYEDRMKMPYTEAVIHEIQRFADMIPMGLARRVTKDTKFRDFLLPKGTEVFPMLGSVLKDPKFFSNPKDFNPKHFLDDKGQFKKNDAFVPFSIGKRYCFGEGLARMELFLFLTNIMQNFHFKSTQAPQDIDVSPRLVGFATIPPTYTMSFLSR

[4] = biological target: T3, CYP2A6 (Homo sapiens, UniProt P11509); test: Michaelis-Menten constant of compound against human cytochrome P450 2A6 enzyme; type: ADME
T3 sequence (P11509 whole entry): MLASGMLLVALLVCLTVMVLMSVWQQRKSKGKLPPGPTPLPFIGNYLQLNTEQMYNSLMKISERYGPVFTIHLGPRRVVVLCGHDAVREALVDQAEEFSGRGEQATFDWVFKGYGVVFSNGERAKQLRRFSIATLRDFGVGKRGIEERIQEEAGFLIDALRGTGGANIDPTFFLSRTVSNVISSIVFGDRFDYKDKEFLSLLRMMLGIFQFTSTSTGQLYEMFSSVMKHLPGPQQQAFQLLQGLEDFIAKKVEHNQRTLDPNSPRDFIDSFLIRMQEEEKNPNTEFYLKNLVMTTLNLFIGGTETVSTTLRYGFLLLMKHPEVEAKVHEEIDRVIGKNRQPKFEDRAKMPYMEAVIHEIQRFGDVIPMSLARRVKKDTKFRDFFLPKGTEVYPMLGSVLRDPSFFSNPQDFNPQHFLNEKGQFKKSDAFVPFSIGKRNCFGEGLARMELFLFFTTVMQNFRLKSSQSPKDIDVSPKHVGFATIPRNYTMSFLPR

[5] = substrate: O=c1ccc2ccccc2o1; test: Michaelis-Menten constant of compound against mouse cytochrome P450 2A5 enzyme; type: ADME

| Molecule | selectivity ratio [1] | IC50 [2] | IC50 [3] | Km [4] | Km [5] |
| --- | --- | --- | --- | --- | --- |
| Clc1ccc2ccccc2c1 | 0.45 | 5.4 µM | 12 µM | – | – |
| CN1CCC[C@@H]1c1cccnc1 [R-NICOTINE] | 3.8 | 580 µM | 160 µM | – | – |
| O=Cc1ccccc1 [BENZALDEHYDE] | – | 3.92 µM | 3.28 µM | – | – |
| Fc1ccc2ccccc2c1 | 0.09 | 0.67 µM | 7.3 µM | – | – |
| Cc1cc(C)c2ccccc2n1 | 7.7 | 830 µM | 110 µM | – | – |
| Clc1ccc2ccccc2c1Cl | – | 15 µM | 5.5 µM | – | – |
| CC(N)Cc1ccccc1 (stereo not drawn) [AMPHETAMINE] | – | 3.5 µM | 2.85 µM | – | – |
| Cc1ccc(CCN)cc1 | – | 5.3 µM | 4 µM | – | – |
| Clc1ccc2ccc(Cl)cc2c1 | – | > 100 µM | 4.4 µM | – | – |
| Cc1cccc2ccccc12 | 1.4 | 34 µM | 24 µM | – | – |
| c1ccc2c(c1)ccc1ccccc12 [PHENANTHRENE] | 4 | 97 µM | 26 µM | – | – |
| Brc1ccc2ccccc2c1 | 0.22 | 0.55 µM | 2.5 µM | – | – |
| Cc1nccc2ccccc12 | 0.36 | 60 µM | 170 µM | – | – |
| Brc1ccc(Br)cc1 | 48.5 | 59 µM | 2.2 µM | – | – |
| Clc1cccc2ccccc12 | 1.3 | 18 µM | 14 µM | – | – |
| Clc1ccccc1-c1ccccc1 | 2.8 | 36 µM | 13 µM | – | – |
| CCc1ccc2ccccc2c1 | 2.4 | 12 µM | 4.8 µM | – | – |
| Cc1ccc2c(C)cccc2c1 | 4 | 130 µM | 32 µM | – | – |
| Clc1cccc2c(Cl)cccc12 | 1.04 | 2.5 µM | 2.4 µM | – | – |
| O=c1ccc2ccccc2o1 [COUMARIN] | – | – | – | 0.74 µM | – |
| Clc1cc2ccccc2cc1Cl | – | > 60 µM | 60 µM | – | – |
| CN1C(=O)CCC1c1cccnc1 (single isomer, unassigned) [COTININE] | 42.8 | – | 1500 µM | – | – |
| Clc1ccc(-c2ccccc2)cc1 | 8.2 | 150 µM | 18 µM | – | – |

| Molecule | selectivity ratio [1] | IC50 [2] | IC50 [3] | Km [4] | Km [5] |
| --- | --- | --- | --- | --- | --- |
| Cc1ccc2cccc(C)c2c1 | 1.2 | 31 µM | 14 µM | – | – |
| Clc1cc2cc(Cl)c(Cl)c(Cl)c2cc1Cl | – | > 600 µM | 300 µM | – | – |
| Cc1cccc2c(C)cccc12 | 0.91 | 31 µM | 34 µM | – | – |
| Cc1cc2ccccc2cn1 | 5.1 | 25 µM | 4.8 µM | – | – |
| Oc1cccc2ccccc12 [1-NAPHTHOL] | 0.96 | 130 µM | 140 µM | – | – |
| Clc1ccc(Cl)cc1 [1,4-DICHLOROBENZENE] | 30.4 | 17 µM | 1 µM | – | – |
| Cc1ccc2ccc(C)cc2c1 | – | 1.7 µM | 1.4 µM | – | – |
| O=C1CCc2ccccc2C1 | 2.2 | 21 µM | 9.7 µM | – | – |
| Cc1cnc2ccccc2c1 | 1.9 | 200 µM | 100 µM | – | – |
| Cc1ccc2ccc(C)nc2c1 | 2.2 | 400 µM | 180 µM | – | – |
| COc1cc2c(cc1OC)CC(=O)CC2 | 9.2 | 2000 µM | 210 µM | – | – |
| Cc1ccc2cc(C)ccc2c1 | 5.9 | 10 µM | 1.7 µM | – | – |
| Oc1ccc2ccccc2c1 [BETANAPHTHOL] | 1.8 | 140 µM | 78 µM | – | – |
| COc1ccc(C=O)cc1 [ANISALDEHYDE] | – | 7.1 µM | 5.9 µM | – | – |
| CC(=O)c1ccc2ccc(C)cc2c1 | 1.6 | 6.7 µM | 4.1 µM | – | – |
| NCCc1ccccc1 [PHENETHYLAMINE] | – | 38.9 µM | 1000 µM | – | – |
| Cc1ccc(C=O)cc1 | – | – | 20.9 µM | – | – |
| Cc1ccc2ccccc2c1 | 0.34 | 2.4 µM | 7 µM | – | – |
| c1ccc2ccccc2c1 [NAPHTHALENE] | 0.34 | 25 µM | 74 µM | – | – |
| Cc1ccc2ccccc2n1 [QUINALDINE] | 2.4 | 190 µM | 80 µM | – | – |
| O=C1CCCc2ccccc21 | 3.6 | 52 µM | 14 µM | – | – |
| Cytochrome P450 2A5 (Mus musculus) (protein) MLTSGLLLVAAVAFLSVLVLMSVWKQRKLSGKLPPGPTPLPFIGNFLQLNTEQMYNSLMKISQRYGPVFTIYLGPRRIVVLCGQEAVKEALVDQAEEFSGRGEQATFDWLFKGYGVVFSSGERAKQLRRFSIATLRDFGVGKRGIEERIQEEAGFLIDSFRKTNGAFIDPTFYLSRTVSNVISSIVFGDRFDYEDKEFLSLLRMMLGSFQFTATSMGQLYEMFSSVMKHLPGPQQQAFKELQGLEDFITKKVEHNQRTLDPNSPRDFIDSFLIRMLEEKKNPNTEFYMKNLVLTTLNLFFAGTETVSTTLRYGFLLLMKHPDIEAKVHEEIDRVIGRNRQPKYEDRMKMPYTEAVIHEIQRFADMIPMGLARRVTKDTKFRDFLLPKGTEVFPMLGSVLKDPKFFSNPKDFNPKHFLDDKGQFKKNDAFVPFSIGKRYCFGEGLARMELFLFLTNIMQNFHFKSTQAPQDIDVSPRLVGFATIPPTYTMSFLSR | – | – | – | – | 0.64 µM |
